Measured values as given in ChEMBL document CHEMBL1201862, “PubChem BioAssay data set” (2004).
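These data come from cells grown in 96-well plates and exposed to compound for 48 hours at five concentrations. GI50 = concentration required for 50% inhibition of growth.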 The source made the active and inactive calls. Cut-off read from the data, not from the text of the source: active = GI50 up to about 1.1 µM and inactive = higher.

Key:
Test in all cases: growth of human tumour cells (NCI), 48 h
NCI-H23 = system: NCI-H23
NCI/ADR-RES = system: NCI/ADR-RES
KM12 = system: KM12
RXF 393 = system: RXF 393
SK-MEL-2 = system: SK-MEL-2
MDA-N = system: MDA-N
M14 = system: M14
OVCAR-4 = system: OVCAR-4
MDA-MB-435 = system: MDA-MB-435
RPMI-8226 = system: RPMI-8226
PC-3 = system: PC-3
MCF7 = system: MCF7
SK-OV-3 = system: SK-OV-3
EKVX = system: EKVX
BT-549 = system: BT-549
SF-295 = system: SF-295
SF-539 = system: SF-539
Malme-3M = system: Malme-3M
UO-31 = system: UO-31
A498 = system: A498

Measured: GI50

Cc1cccc2c(O)c3c(O)cc(O)cc3nc12
inactive: NCI-H23 > 10 µM | NCI/ADR-RES > 10 µM | KM12 > 10 µM | RXF 393 > 10 µM | SK-MEL-2 > 10 µM | MDA-N > 10 µM | M14 > 10 µM | OVCAR-4 > 10 µM | MDA-MB-435 > 10 µM | RPMI-8226 > 10 µM | PC-3 > 10 µM | MCF7 > 10 µM | SK-OV-3 > 10 µM | EKVX > 10 µM | BT-549 3.61 µM | SF-295 > 10 µM | SF-539 6.12 µM | Malme-3M > 10 µM | UO-31 > 10 µM | A498 > 10 µM

N/N=C(\C(=O)Nc1ccc(Cl)cc1Cl)C(c1cnc2ccccc2n1)[N+](=O)[O-] (stereo not given)
inactive: NCI-H23 > 100 µM | NCI/ADR-RES > 100 µM | KM12 > 100 µM | RXF 393 > 100 µM | SK-MEL-2 > 100 µM | MDA-N > 100 µM | M14 > 100 µM | OVCAR-4 > 100 µM | MDA-MB-435 > 100 µM | RPMI-8226 > 100 µM | PC-3 > 100 µM | MCF7 > 100 µM | SK-OV-3 > 100 µM | EKVX > 100 µM | BT-549 > 100 µM | SF-295 > 100 µM | SF-539 > 100 µM | Malme-3M > 100 µM | UO-31 44.2 µM | A498 > 100 µM

COc1cccc(/C=C2\SC(=S)N(/C=C3\C(=O)Oc4ccccc4C3=O)C2=O)c1O
inactive: NCI-H23 45.2 µM | NCI/ADR-RES 41 µM | KM12 45.8 µM | RXF 393 59.4 µM | SK-MEL-2 45.7 µM | MDA-N 32.8 µM | M14 39.4 µM | OVCAR-4 82.4 µM | MDA-MB-435 24.7 µM | RPMI-8226 18.8 µM | PC-3 51.8 µM | MCF7 39.4 µM | SK-OV-3 49.2 µM | EKVX > 100 µM | BT-549 20 µM | SF-295 76.6 µM | SF-539 24.9 µM | Malme-3M > 100 µM | UO-31 22.3 µM | A498 11.9 µM

COC(OC)C1OC(CO)C(n2cc(C)c(=O)[nH]c2=O)C1O (stereo not given)
inactive: NCI-H23 > 100 µM | NCI/ADR-RES > 100 µM | KM12 > 100 µM | RXF 393 61.7 µM | SK-MEL-2 > 100 µM | MDA-N > 100 µM | M14 > 100 µM | OVCAR-4 > 100 µM | MDA-MB-435 > 100 µM | RPMI-8226 > 100 µM | PC-3 > 100 µM | MCF7 > 100 µM | SK-OV-3 > 100 µM | EKVX > 100 µM | BT-549 > 100 µM | SF-295 > 100 µM | SF-539 > 100 µM | Malme-3M > 100 µM | UO-31 > 100 µM | A498 > 100 µM

O=C1N[C@H]2C(=O)c3c(Br)sc(Br)c3[C@H]2O1
inactive: NCI-H23 6.44 µM | NCI/ADR-RES 13.4 µM | KM12 19 µM | RXF 393 3.18 µM | SK-MEL-2 14.7 µM | MDA-N 7.01 µM | M14 3.08 µM | OVCAR-4 15.3 µM | MDA-MB-435 3.89 µM | RPMI-8226 4.44 µM | PC-3 4.95 µM | MCF7 10.7 µM | SK-OV-3 18.4 µM | EKVX 5.69 µM | BT-549 14.5 µM | SF-295 18.5 µM | SF-539 17.4 µM | Malme-3M 4.75 µM | UO-31 1.86 µM | A498 18.7 µM
